Reference: patent US20230382916A1, “HETEROARYL HETEROCYCLIC COMPOUNDS AND USES THEREOF” (HUTCHISON MEDIPHARMA LIMITED, priority 2020, published 2023)
pIC50: −log10 of the molar value.

Molecular target: BTK recombinant protein (Homo sapiens (Human), UniProt Q06187)
Test: Determination of biochemical BTK (Z'-LYTE kinase assay)
Conditions: 32 μM ATP

Sequence of BTK recombinant protein (Q06187 whole entry): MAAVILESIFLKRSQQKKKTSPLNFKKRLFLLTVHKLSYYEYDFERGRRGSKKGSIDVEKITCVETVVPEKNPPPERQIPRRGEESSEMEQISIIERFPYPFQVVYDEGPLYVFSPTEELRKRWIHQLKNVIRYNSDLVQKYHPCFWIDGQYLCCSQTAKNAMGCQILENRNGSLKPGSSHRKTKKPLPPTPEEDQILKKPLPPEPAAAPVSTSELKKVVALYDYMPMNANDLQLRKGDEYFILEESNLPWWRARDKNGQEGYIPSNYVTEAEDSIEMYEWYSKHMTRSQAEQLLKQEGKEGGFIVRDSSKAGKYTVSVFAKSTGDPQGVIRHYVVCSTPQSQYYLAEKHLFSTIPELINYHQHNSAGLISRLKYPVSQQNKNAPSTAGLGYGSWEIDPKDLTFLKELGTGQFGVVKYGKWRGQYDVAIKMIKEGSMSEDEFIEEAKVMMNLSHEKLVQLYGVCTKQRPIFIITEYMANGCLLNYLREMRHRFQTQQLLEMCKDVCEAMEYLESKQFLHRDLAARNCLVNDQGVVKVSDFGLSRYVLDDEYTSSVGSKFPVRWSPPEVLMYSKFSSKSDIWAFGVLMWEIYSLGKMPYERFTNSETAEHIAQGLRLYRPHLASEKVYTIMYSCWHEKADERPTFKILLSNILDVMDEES

In the case of C[C@H]1CN(C2COC2)C[C@H](C)N1c1ccc(Nc2cc(-c3ccnc(-n4ccn5c6c(cc5c4=O)CC(C)(C)C6)c3CO)cn(C)c2=O)nc1 [Compound 1, 2-(5-((5-((2S,6S)-2,6-dimethyl-4-(oxetan-3-yl)piperazin-1-yl)pyridin-2-yl)amino)-3′-(hydroxymethyl)-1-methyl-6-oxo-1,6-dihydro-[3,4′-bipyridin]-2′-yl)-7,7-dimethyl-7,8-dihydro-2H-cyclopenta[4,5]pyrrolo[1,2-a]pyrazin-1(6H)-one], the pIC50 was 8.00.
